Data as given in patent US6150414A, “Compositions and methods for treating viral infections” (priority 1992, dated 2000).
Several values for one entry are separate records, joined by “and”; a condition that tells them apart may be missing. Equal entries are not always repeated. Where two headings read alike, the source gives them in different places.

How the values were obtained:
Friend Leukemia Virus [1] = assay: Inhibition of Friend Leukemia Virus-induced splenomegaly in mice, compounds intraperitoneally 24 hours after virus (Example 1(a)); assay type: in vivo, BALB/c mice; set-up: Actual Spleen Weight / Average Spleen Weight: unit not given here; conditions: for inhibition in vivo at 0.1 mg / inhibition in vivo at 0.05 mg / inhibition in vivo at 0.2 mg: Mus musculus, ip; for Pooled Average % Inhibition: pooled over 50, 100, 200, 2 × 100 micrograms
From the text: The effects of compositions according to the present invention on infection of mammals with Friend Leukemia Virus (FV) were examined.
Friend Leukemia Virus is an aggressive retrovirus which induces an acute erythroleukemia in sensitive strains of mice such as BALB/c and NIH swiss mice as described in Friend, C. J., Exp. Med. 105: 307-324, 1957; Friend, C. et al. Proc. Natl. Acad. Sci. USA 68: 378-383, 1971; Friend, C. et al. Natl. Cancer Inst. Mongr. 22: 508-552, 1966. The malignant transformation is the result of the combined activities of the Spleen Focus Forming Virus (SFFV) and the ecotropic Murine Friend Leukemia Helper Virus (F-MuLV). The acute erythroleukemia is characterized by hepatosplenomegaly (a marked increase in the size of the spleen and liver) and a severe anemia.
Friend Leukemia Virus was prepared by homogenizing the enlarged spleen of a mouse previously infected with FV, 10 days after intravenous virus injection. The spleen was homogenized in phosphate buffered saline in a volume equal to ten times the weight of the isolated spleen.
(§1) The effects of compositions according to the present invention on the increase in spleen size (splenomegaly) of BALB/c mice (Jackson Labs, Bar Harbor, ME) was examined. In these experiments, the virus (10^6 focus forming units--FFU) was inoculated intravenously and 100 micrograms of the compounds indicated in Table II were administered to the mice intraperitoneally 24 hours later. Each compound was administered once to two mice. The animals were sacrificed ten days later and their spleens weighed.
The present assay has been developed from similar assays using hypericin or pseudohypericin and employing higher numbers of experimental animals per group (e.g. 4 animals). It was discovered however that the specificity and sensitivity of this assay are such that an experimental group of two animals is of more than adequate predictive value.
(§2) As used in Table II (and subsequent Tables of this Example l(a) and (b), "average percent inhibition" is calculated as follows: [formula] wherein "ASWNC" designates "average spleen weight of negative control"; "ASWE" designates "average spleen weight of experimental (treated) subject"; and "ASWPC" designates "average spleen weight of positive control". Average spleen weight is the numerical average of spleen weights of each experimental group (in Table II each such group includes two members).
In these experiments, the virus (10^6 focus forming units--FFU) was inoculated intravenously, and the indicated doses of the antiviral compounds of this invention were administered to the BALB/c mice intraperitoneally 24 hours later. The animals were then sacrificed ten days later and their spleens weighed.
Pseudohypericin was diluted in phosphate buffered saline with 1% ethanol.
An expanded series of experiments was next performed in which various concentrations (i.e. 50, 100, 200 and 2×100, i.e., 100 micrograms administered twice) of a different set of PAC compounds (numbers 16-29 and 30-36 in Table III below) were administered intraperitoneally each according to the same protocol described above. Compounds 16-29 all had 3-5 fused, aromatic rings and no side groups except for oxygen or hydroxyl groups, whereas compounds 30-36 all had 3 fused aromatic rings and side chains selected from the group of oxygen, hydroxyl and methyl.
When 2 doses of the compounds were given, the second dose was administered 24-48 hours after the first injection. The animals were infected and splenomegaly determined as above for the compounds in Table II. In Table III, "pooled average percent inhibition" is calculated by adding the average percent inhibition for each experiment with the same compound and dividing the sum by the number of experiments (i.e. the number 4). […]

Friend Leukemia Virus [2] = assay: FV-induced splenomegaly, PAC compounds in combination with AZT (Example 1(b)); assay type: in vivo, BALB/c mice; set-up: Spleen weight / Average Spleen Weight: unit not given here; conditions: for Spleen weight: single animal
Description: as §1, §2
The compounds of the present invention (100 micrograms per mouse) were also tested in combination with AZT (20 micrograms per mouse, twice a day) using otherwise the same methods as in Example 1(a) above. As representatives, compound #9 above (3-bromophenanthro (3,4-C), phenanthrene) and compound #10 (diindeno (1, 2, 3-CD/1', 2', 3'-IM) Perylene) were chosen. […] The compounds were administered i.p. either once or five times (once per day) alone or together with AZT (20 micrograms of AZT per mouse twice a day for five days?). Thus, in experiments where AZT was administered five times, a total of […] of AZT was received by each mouse (with a total of 500 micrograms of the PAC compound).

retroviruses (virions) = assay: Direct inactivation of retroviruses (virions) in vitro (Example 10); assay type: biochemical, Radiation Leukemia Virus; conditions: Table IX
Description: (§3) Supernatants (10 ml/tube) from B10.T(6R) cells (Meruelo et al. J. Exp. Med. 147: 470-487, 1978) chronically infected with Radiation Leukemia Virus (RadLV) were obtained by centrifugation of cells in culture at 4° C., 3500 rpm for 15 minutes. The top 2/3 of the supernatant were removed and aliquots were incubated for 30 minutes on ice with the indicated amounts of hypericin or protohypericin. […] Thereafter, supernatants were centrifuged at 100,000×g using a TI70 rotor (Beckman Instruments) for 1 hour at 4° C. The pellet was […] and analyzed for reverse transcriptase activity as follows.
(§4) The reverse transcriptase assay was performed in a volume of 100 microliters containing the following components:
(1) Direct inactivation of retroviruses in vitro, performed as in Example 3 above;
(§5) The results presented above in Table IX are presented as EC50 concentrations. These are the effective concentrations which inhibit 50% of the viruses in micromolar concentrations.

Friend Leukemia Virus [3] = assay: In vivo inhibition of Friend Leukemia Virus splenomegaly, intravenous 1-2 hours post infection (Example 10); set-up: species or system mice; conditions: Mus musculus, read-out: EC50 for FV-induced splenomegaly
Description: (3) In vivo inhibition of Friend Leukemia Virus Splenomegaly performed as described in Example 1 above except that the compounds were administered intravenously 1-2 hours post infection.
as §5

[4] = biological target: T1, Radiation Leukemia Virus reverse transcriptase (Radiation murine leukemia virus, UniProt P11227); assay: Radiation Leukemia Virus reverse transcriptase assay, supernatants from infected AQR cells (Examples 4 and 9); assay type: biochemical; conditions: for Average CPM / CPM / Average percent inhibition: Table VI; for CPM: replicate
T1 construct: the reverse transcriptase of Radiation Leukemia Virus; endogenous in cells
Description: as §3, §4
The antiviral activity of HHA was tested using AQR (Bach and Meruelo, J. Exp. Med. 160:270-285, 1984) cells chronically infected with Radiation Leukemia Virus in the reverse transcriptase assay as described in Example 3 above.
The assays were conducted using the same procedure as in Example 3 above, using supernatants from infected AQR cells.

[5] = 100 micrograms i.p. once, 24 h after FV, Table II
[6] = 1X, 100 micrograms per mouse i.p.
[7] = 5X, 100 micrograms per mouse i.p. once per day
[8] = dose 2 × 100 (micrograms) i.p., Table III, read-out: Average Perdosage % Inhibition
[9] = dose 50 (micrograms) i.p., Table III, read-out: Average Perdosage % Inhibition
[10] = dose 100 (micrograms) i.p., Table III, read-out: Average Perdosage % Inhibition
[11] = dose 200 (micrograms) i.p., Table III, read-out: Average Perdosage % Inhibition
[12] = dose 2 × 100 (micrograms) i.p., Table III
[13] = dose 50 (micrograms) i.p., Table III
[14] = dose 100 (micrograms) i.p., Table III
[15] = dose 200 (micrograms) i.p., Table III

Structure (SMILES): Brc1cc2ccc3ccc4ccccc4c3c2c2c1ccc1ccccc12 [Compound 9, 3-Bromophenanthro(3,4-C)Phenanthrene]
- Average Spleen Weight (Friend Leukemia Virus [1]; [5]): 0.8756
- inhibition of FV-induced splenomegaly / anti-retroviral activity (Friend Leukemia Virus [1]; Example 1(a)): weak anti-retroviral activity
- % Inhibition (Friend Leukemia Virus [2]; [6]): 3%
- Average Spleen Weight (Friend Leukemia Virus [2]; [6]): 2.1074
- Spleen weight (Friend Leukemia Virus [2]; [6]): 2.0831 and 2.1317
- % Inhibition (Friend Leukemia Virus [2]; [7]): 24%
- Average Spleen Weight (Friend Leukemia Virus [2]; [7]): 1.681
- Spleen weight (Friend Leukemia Virus [2]; [7]): 1.6262 and 1.7363

Structure (SMILES): c1ccc2c(c1)-c1ccc3c4ccc5c6c(ccc(c7ccc-2c1c37)c64)-c1ccccc1-5 [Compound 10, Diindeno(1,2,3-CD/1',2',3'-IM)Perylene]
- Average % Inhibition (Friend Leukemia Virus [1]; [5]): 44.3%
- Average Spleen Weight (Friend Leukemia Virus [1]; [5]): 0.4767
- Average % Inhibition (Friend Leukemia Virus [1]; 100 micrograms i.p. once, 24 h after FV, Table II, listed as #10): > 40%
- Actual Spleen Weight (Friend Leukemia Virus [1]; 100 micrograms i.p. once, 24 h after FV, Table II, single animal): 0.4809 and 0.4724
- % Inhibition (Friend Leukemia Virus [2]; [6]): 22%
- Average Spleen Weight (Friend Leukemia Virus [2]; [6]): 1.724
- Spleen weight (Friend Leukemia Virus [2]; [6]): 1.7816 and 1.6664
- % Inhibition (Friend Leukemia Virus [2]; [7]): 46%
- Average Spleen Weight (Friend Leukemia Virus [2]; [7]): 1.2358
- Spleen weight (Friend Leukemia Virus [2]; [7]): 1.5771 and 0.8945

Structure (SMILES): O=C1c2ccccc2Cc2ccccc21 [Compound 30, Anthrone]
- inhibition in vivo at 0.1 mg (Friend Leukemia Virus [1]; [8]): 57%
- inhibition in vivo at 0.05 mg (Friend Leukemia Virus [1]; [9]): 31%
- inhibition in vivo at 0.1 mg (Friend Leukemia Virus [1]; [10]): 63%
- inhibition in vivo at 0.2 mg (Friend Leukemia Virus [1]; [11]): 62%
- Average Spleen Weight (Friend Leukemia Virus [1]; [12]): 0.9878
- Average Spleen Weight (Friend Leukemia Virus [1]; [13]): 1.4953
- Average Spleen Weight (Friend Leukemia Virus [1]; [14]): 0.8790
- Average Spleen Weight (Friend Leukemia Virus [1]; [15]): 0.9092
- Pooled Average % Inhibition (Friend Leukemia Virus [1]; Table III): 53%
- EC50 (retroviruses (virions)): > 51 µM
- EC50 (Friend Leukemia Virus [3]; i.v. 1-2 hours post infection, Table IX): 267 µM

Structure (SMILES): Cc1cc(O)c2c(c1)C(=O)c1cc(O)cc(O)c1C2=O [Compound 34, Emodin]
- inhibition in vivo at 0.1 mg (Friend Leukemia Virus [1]; [8]): 42%
- inhibition in vivo at 0.05 mg (Friend Leukemia Virus [1]; [9]): 41%
- inhibition in vivo at 0.1 mg (Friend Leukemia Virus [1]; [10]): 50%
- inhibition in vivo at 0.2 mg (Friend Leukemia Virus [1]; [11]): 20%
- Average Spleen Weight (Friend Leukemia Virus [1]; [12]): 1.2834
- Average Spleen Weight (Friend Leukemia Virus [1]; [13]): 1.2914
- Average Spleen Weight (Friend Leukemia Virus [1]; [14]): 1.1333
- Average Spleen Weight (Friend Leukemia Virus [1]; [15]): 1.6902
- Pooled Average % Inhibition (Friend Leukemia Virus [1]; Table III): 38%
- EC50 (retroviruses (virions)): > 37 µM

Structure (SMILES): O=C1c2ccccc2C(=O)c2cc(CO)ccc21 [Compound 35, 2-(hydroxymethyl)-anthraquinone]
- inhibition in vivo at 0.1 mg (Friend Leukemia Virus [1]; read-out: Average Perdosage % Inhibition, dose 2 × 100 (micrograms) i.p., Table III): 75%
- inhibition in vivo at 0.05 mg (Friend Leukemia Virus [1]; read-out: Average Perdosage % Inhibition, dose 50 (micrograms) i.p., Table III): 62%
- inhibition in vivo at 0.1 mg (Friend Leukemia Virus [1]; read-out: Average Perdosage % Inhibition, dose 100 (micrograms) i.p., Table III): 64%
- inhibition in vivo at 0.2 mg (Friend Leukemia Virus [1]; read-out: Average Perdosage % Inhibition, dose 200 (micrograms) i.p., Table III): 77%
- Average Spleen Weight (Friend Leukemia Virus [1]; [12]): 0.6575
- Average Spleen Weight (Friend Leukemia Virus [1]; [13]): 0.8921
- Average Spleen Weight (Friend Leukemia Virus [1]; [14]): 0.8615
- Average Spleen Weight (Friend Leukemia Virus [1]; [15]): 0.6086
- Pooled Average % Inhibition (Friend Leukemia Virus [1]; Table III): 70%
- EC50 (retroviruses (virions)): > 41 µM
- EC50 (Friend Leukemia Virus [3]): 145 µM

Structure (SMILES): CC(=O)Oc1cc(C)c2c3c(C)cc(OC(C)=O)c4c(=O)c5c(OC(C)=O)cc(OC(C)=O)c6c7c(OC(C)=O)cc(OC(C)=O)c8c(=O)c1c2c(c87)c(c43)c56 [HHA, Hypericin hexaacetate]
- Average CPM ([4]; 0.05 micrograms): 466,981 CPM
- CPM ([4]; 0.05 micrograms): 441,410 CPM and 492,552 CPM
- Average CPM ([4]; 0.1 micrograms): 202,454 CPM
- Average percent inhibition ([4]; 0.1 micrograms): 54.8%
- CPM ([4]; 0.1 micrograms): 208,882 CPM and 196,026 CPM
- Average CPM ([4]; 0.5 micrograms): 501,386 CPM
- CPM ([4]; 0.5 micrograms): 518,336 CPM and 484,356 CPM
- Average CPM ([4]; 1 microgram): 451,634 CPM
- CPM ([4]; 1 microgram): 401,306 CPM and 501,962 CPM
- Average CPM ([4]; 5 micrograms): 205,891 CPM
- Average percent inhibition ([4]; 5 micrograms): 54.1%
- CPM ([4]; 5 micrograms): 221,098 CPM and 190,604 CPM
- Average CPM ([4]; 10 micrograms): 91,440 CPM
- Average percent inhibition ([4]; 10 micrograms): 79.6%
- CPM ([4]; 10 micrograms): 96,654 CPM and 86,226 CPM
- Average CPM ([4]; 50 micrograms): 5,305 CPM
- Average percent inhibition ([4]; 50 micrograms): 98.8%
- CPM ([4]; 50 micrograms): 5,236 CPM and 5,374 CPM
- Average CPM ([4]; 100 micrograms): 2,545 CPM
- Average percent inhibition ([4]; 100 micrograms): 99.4%
- CPM ([4]; 100 micrograms): 2,750 CPM and 2,340 CPM
- inhibition of RadLV reverse transcriptase activity ([4]; Example 4): about as active a protohypericin in inhibiting the RadLV reverse transcriptase activity
- EC50 (retroviruses (virions)): 12.9 µM
- EC50 (Friend Leukemia Virus [3]): > 199 µM
